Measured values as given in the NIST ThermoML archive (doi:10.1016/j.jct.2015.07.042).
Numbers after ± are expanded uncertainties.

Test: activity coefficient (dimensionless); of the first substance listed, at infinite dilution; xn = mol fraction of the nth substance listed
Conditions: 101 kPa, Liquid, Chromatography, x1 = 0

SMILES | activity coefficient (358.15 K) | activity coefficient (368.15 K) | activity coefficient (378.15 K) | activity coefficient (388.15 K) | activity coefficient (398.15 K) | activity coefficient (408.15 K) | activity coefficient (418.15 K) | activity coefficient (428.15 K)
C#CCCC [1-pentyne] + CCCCn1cc[n+](C)c1.CS(=O)(=O)[O-] | 5.46 ± 0.37 | 5.84 ± 0.4 | 6.26 ± 0.43 | 6.67 ± 0.45 | – | – | – | –
Cc1ccccc1C [1,2-dimethylbenzene] + CCCCn1cc[n+](C)c1.[Cl-] | 11.6 ± 0.79 | 11.7 ± 0.8 | 11.9 ± 0.81 | 12.3 ± 0.84 | – | – | – | –
COC(C)=O [methyl ethanoate] + CCCCn1cc[n+](C)c1.[Cl-] | 4.82 ± 0.33 | 4.89 ± 0.33 | 5.01 ± 0.34 | 5.09 ± 0.35 | – | – | – | –
C1CCCCCC1 [cycloheptane] + CCCCn1cc[n+](C)c1.COP(=O)([O-])OC | 15.1 ± 1 | 14.6 ± 1 | 14.3 ± 0.97 | 14 ± 0.96 | – | – | – | –
CC(C)=O [acetone] + CCCCn1cc[n+](C)c1.COP(=O)([O-])OC | 1.92 ± 0.13 | 1.96 ± 0.13 | 2.02 ± 0.14 | 2.1 ± 0.14 | – | – | – | –
c1ccsc1 [thiophene] + CCCCn1cc[n+](C)c1.COP(=O)([O-])OC | 1.24 ± 0.08 | 1.35 ± 0.09 | 1.43 ± 0.09 | 1.53 ± 0.1 | – | – | – | –
C=Cc1ccccc1 [styrene] + CCCCn1cc[n+](C)c1.CS(=O)(=O)[O-] | 3.79 ± 0.26 | 3.96 ± 0.27 | 4.2 ± 0.29 | 4.4 ± 0.3 | – | – | – | –
C1CCOC1 [tetrahydrofuran] + CCCCn1cc[n+](C)c1.[Cl-] | 5.66 ± 0.39 | 5.67 ± 0.39 | 5.67 ± 0.39 | 5.7 ± 0.39 | – | – | – | –
CO [methanol] + CCCCn1cc[n+](C)c1.CS(=O)(=O)[O-] | – | – | – | – | 0.325 ± 0.032 | 0.34 ± 0.032 | 0.357 ± 0.033 | 0.373 ± 0.033
CCc1ccccc1 [ethylbenzene] + CCCCn1cc[n+](C)c1.CS(=O)(=O)[O-] | 8.45 ± 0.58 | 8.61 ± 0.59 | 8.76 ± 0.6 | 9.05 ± 0.62 | – | – | – | –
Cc1ccccc1C [1,2-dimethylbenzene] + CCCCn1cc[n+](C)c1.CS(=O)(=O)[O-] | 7.64 ± 0.52 | 7.79 ± 0.53 | 7.99 ± 0.54 | 8.21 ± 0.56 | – | – | – | –
CCCOCCC [dipropyl ether] + CCCCn1cc[n+](C)c1.COP(=O)([O-])OC | 13.9 ± 0.95 | 13.7 ± 0.94 | 13.6 ± 0.93 | 13.4 ± 0.92 | – | – | – | –
Cc1cccc(C)c1 [1,3-dimethylbenzene] + CCCCn1cc[n+](C)c1.CS(=O)(=O)[O-] | 9.27 ± 0.63 | 9.43 ± 0.64 | 9.57 ± 0.65 | 9.92 ± 0.68 | – | – | – | –
CCc1ccccc1 [ethylbenzene] + CCCCn1cc[n+](C)c1.[Cl-] | 13.2 ± 0.9 | 13.2 ± 0.9 | 13.5 ± 0.92 | 13.7 ± 0.94 | – | – | – | –
CO [methanol] + CCCCn1cc[n+](C)c1.[Cl-] | – | – | – | – | 0.156 ± 0.029 | 0.166 ± 0.029 | 0.176 ± 0.029 | 0.191 ± 0.029
CCc1ccccc1 [ethylbenzene] + CCCCn1cc[n+](C)c1.COP(=O)([O-])OC | 5.73 ± 0.39 | 5.87 ± 0.4 | 5.97 ± 0.41 | 6.26 ± 0.43 | – | – | – | –
C=C(C)c1ccccc1 [(1-methylethenyl)benzene] + CCCCn1cc[n+](C)c1.[Cl-] | 9.01 ± 0.61 | 9.33 ± 0.64 | 9.83 ± 0.67 | 10.3 ± 0.71 | – | – | – | –
C#CCCCCC [1-heptyne] + CCCCn1cc[n+](C)c1.CS(=O)(=O)[O-] | 12 ± 0.82 | 12.6 ± 0.86 | 13.3 ± 0.91 | 14.1 ± 0.96 | – | – | – | –
CC(C)(C)O [2-methylpropan-2-ol] + CCCCn1cc[n+](C)c1.COP(=O)([O-])OC | – | – | – | – | 0.419 ± 0.035 | 0.471 ± 0.037 | 0.527 ± 0.039 | 0.592 ± 0.042
